Our source for the T/C values is PubChem BioAssay AID256 (DTP/NCI, 2004).

This assay relates to CD2F1 mice, L1210 leukemia ip, survival T/C. Kind of assay: NCI In Vivo Anticancer Drug Screen. Data for tumor model L1210 Leukemia (intraperitoneal) in CD2F1 (CDF1) mice. As to conditions: higher = longer survival. In short, it runs like this: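 Tumor-bearing mice (transplanted tumor) were split into treated and vehicle control groups, and the measured endpoint of each treated group was divided by that of its vehicle controls.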

Molecules are shown by their SMILES. Where “and” joins values, the source holds several entries; their conditions need not be identical. Equal entries are not always repeated. Inconclusive results and toxic doses are left out.

As for `CN(C)CCN1C(=O)c2cccc3cc(N)cc(c23)C1=O`, the T/C (endpoint: mean survival time, dose: 1.0 mg/kg/injection, schedule: Q01DX009 (ip), vehicle: saline with Tween-80) was 92 % of control and 104 % of control; the T/C (endpoint: mean survival time, dose: 2.0 mg/kg/injection, schedule: Q01DX009 (ip), vehicle: saline with Tween-80) was 101 % of control and 102 % of control; the T/C (endpoint: mean survival time, dose: 4.0 mg/kg/injection, schedule: Q01DX009 (ip), vehicle: saline with Tween-80) is 107 % of control and 108 % of control; the T/C (endpoint: mean survival time, dose: 16.0 mg/kg/injection, schedule: Q01DX009 (ip), vehicle: saline with Tween-80) is 175 % of control and 197 % of control; the T/C (endpoint: mean survival time, dose: 32.0 mg/kg/injection, schedule: Q01DX009 (ip), vehicle: saline with Tween-80) is 89 % of control and 96 % of control; the T/C (endpoint: median survival time, dose: 1.0 mg/kg/injection, schedule: Q01DX009 (ip), vehicle: acid diluted with saline) was 99 % of control. For the same compound, the T/C runs as follows: (endpoint: median survival time, dose: 1.2 mg/kg/injection, schedule: Q03HX024 (ip), vehicle: water) 113 % of control; (endpoint: median survival time, dose: 1.8 mg/kg/injection, schedule: Q03HX024 (ip), vehicle: water) 117 % of control; (endpoint: median survival time, dose: 2.0 mg/kg/injection, schedule: Q01DX009 (ip), vehicle: acid diluted with saline) 97 % of control and 107 % of control; (endpoint: median survival time, dose: 2.0 mg/kg/injection, schedule: Q01DX009 (ip), vehicle: saline with Tween-80) 105 % of control; (endpoint: median survival time, dose: 2.7 mg/kg/injection, schedule: Q03HX024 (ip), vehicle: water) 115 % of control; (endpoint: median survival time, dose: 2.9 mg/kg/injection, schedule: Q01DX005 (iv), vehicle: water) 108 % of control. Also, the T/C runs as follows: (endpoint: median survival time, dose: 3.2 mg/kg/injection, schedule: Q01DX009 (ip), vehicle: saline) 118 % of control; (endpoint: median survival time, dose: 3.2 mg/kg/injection, schedule: Q01DX009 (ip), vehicle: water) 105 % of control; (endpoint: median survival time, dose: 3.65 mg/kg/injection, schedule: Q03HX008 (ip), vehicle: water) 118 % of control; (endpoint: median survival time, dose: 4.0 mg/kg/injection, schedule: Q01DX009 (ip), vehicle: acid diluted with saline) 113 % of control and 99 % of control; (endpoint: median survival time, dose: 4.0 mg/kg/injection, schedule: Q01DX009 (ip), vehicle: saline with Tween-80) 116 % of control; (endpoint: median survival time, dose: 4.35 mg/kg/injection, schedule: Q01DX005 (iv), vehicle: water) 105 % of control. The T/C reads like this: (endpoint: median survival time, dose: 4.7 mg/kg/injection, schedule: Q01DX009 (ip), vehicle: water) 124 % of control; (endpoint: median survival time, dose: 5.0 mg/kg/injection, schedule: Q01DX009 (ip), vehicle: acid diluted with saline) 113 % of control; (endpoint: median survival time, dose: 5.44 mg/kg/injection, schedule: Q03HX008 (ip), vehicle: water) 120 % of control; (endpoint: median survival time, dose: 5.76 mg/kg/injection, schedule: Q01DX005 (ip), vehicle: water) 117 % of control; (endpoint: median survival time, dose: 6.03 mg/kg/injection, schedule: Q03HX024 (ip), vehicle: water) 154 % of control; (endpoint: median survival time, dose: 6.5 mg/kg/injection, schedule: Q01DX005 (iv), vehicle: saline with Tween-80) 105 % of control. Also, the T/C (endpoint: median survival time, dose: 6.5 mg/kg/injection, schedule: Q01DX005 (iv), vehicle: water) was 113 % of control; the T/C (endpoint: median survival time, dose: 7.0 mg/kg/injection, schedule: Q01DX009 (ip), vehicle: acid diluted with saline) is 114 % of control; the T/C (endpoint: median survival time, dose: 7.1 mg/kg/injection, schedule: Q01DX009 (ip), vehicle: saline with Tween-80) is 123 % of control; the T/C (endpoint: median survival time, dose: 8.0 mg/kg/injection, schedule: Q01DX009 (ip), vehicle: acid diluted with saline) was 118 % of control; the T/C (endpoint: median survival time, dose: 8.46 mg/kg/injection, schedule: Q01DX005 (ip), vehicle: saline with Tween-80) is 114 % of control; the T/C (endpoint: median survival time, dose: 8.46 mg/kg/injection, schedule: Q01DX005 (ip), vehicle: water) is 120 % of control. For the same compound, the T/C is 209 % of control (endpoint: median survival time, dose: 9.0 mg/kg/injection, schedule: Q03HX024 (ip), vehicle: water); 114 % of control (endpoint: median survival time, dose: 9.7 mg/kg/injection, schedule: Q01DX005 (iv), vehicle: saline with Tween-80); 120 % of control (endpoint: median survival time, dose: 9.7 mg/kg/injection, schedule: Q01DX005 (iv), vehicle: water); 120 % of control (endpoint: median survival time, dose: 9.7 mg/kg/injection, schedule: Q04DX003 (ip), vehicle: water); 117 % of control (endpoint: median survival time, dose: 10.0 mg/kg/injection, schedule: Q01DX009 (ip), vehicle: acid diluted with saline); 165 % of control (endpoint: median survival time, dose: 10.7 mg/kg/injection, schedule: Q01DX009 (ip), vehicle: saline). Also, the T/C was 150 % of control and 167 % of control (endpoint: median survival time, dose: 11.0 mg/kg/injection, schedule: Q01DX009 (ip), vehicle: saline with Tween-80); 174 % of control (endpoint: median survival time, dose: 12.1 mg/kg/injection, schedule: Q03HX008 (ip), vehicle: water); 103 % of control (endpoint: median survival time, dose: 13.4 mg/kg/injection, schedule: Q03HX024 (ip), vehicle: water); 120 % of control (endpoint: median survival time, dose: 14.5 mg/kg/injection, schedule: Q04DX003 (ip), vehicle: water); 112 % of control (endpoint: median survival time, dose: 14.6 mg/kg/injection, schedule: Q01DX001 (iv), vehicle: water); 175 % of control and 217 % of control and 112 % of control (endpoint: median survival time, dose: 16.0 mg/kg/injection, schedule: Q01DX009 (ip), vehicle: acid diluted with saline). The T/C by setting is: (endpoint: median survival time, dose: 16.0 mg/kg/injection, schedule: Q01DX009 (ip), vehicle: saline) 206 % of control; (endpoint: median survival time, dose: 16.0 mg/kg/injection, schedule: Q01DX009 (ip), vehicle: water) 187 % of control; (endpoint: median survival time, dose: 19.3 mg/kg/injection, schedule: Q01DX005 (ip), vehicle: saline with Tween-80) 158 % of control; (endpoint: median survival time, dose: 19.3 mg/kg/injection, schedule: Q01DX005 (ip), vehicle: water) 183 % of control; (endpoint: median survival time, dose: 21.6 mg/kg/injection, schedule: Q01DX005 (iv), vehicle: saline with Tween-80) 162 % of control; (endpoint: median survival time, dose: 21.6 mg/kg/injection, schedule: Q01DX005 (iv), vehicle: water) 182 % of control. The T/C runs as follows: (endpoint: median survival time, dose: 21.8 mg/kg/injection, schedule: Q01DX001 (iv), vehicle: water) 113 % of control; (endpoint: median survival time, dose: 24.0 mg/kg/injection, schedule: Q01DX009 (ip), vehicle: saline with Tween-80) 158 % of control and 163 % of control; (endpoint: median survival time, dose: 24.0 mg/kg/injection, schedule: Q01DX009 (ip), vehicle: saline) 118 % of control; (endpoint: median survival time, dose: 24.0 mg/kg/injection, schedule: Q01DX009 (ip), vehicle: water) 117 % of control; (endpoint: median survival time, dose: 28.8 mg/kg/injection, schedule: Q01DX001 (ip), vehicle: water) 120 % of control; (endpoint: median survival time, dose: 28.8 mg/kg/injection, schedule: Q01DX005 (ip), vehicle: saline with Tween-80) 187 % of control. Moreover, the T/C (endpoint: median survival time, dose: 28.8 mg/kg/injection, schedule: Q01DX005 (ip), vehicle: water) is 195 % of control; the T/C (endpoint: median survival time, dose: 28.9 mg/kg/injection, schedule: Q01DX009 (oral), vehicle: water) is 174 % of control; the T/C (endpoint: median survival time, dose: 32.0 mg/kg/injection, schedule: Q01DX009 (ip), vehicle: acid diluted with saline) was 95 % of control; the T/C (endpoint: median survival time, dose: 32.0 mg/kg/injection, schedule: Q01DX009 (ip), vehicle: saline with Tween-80) was 90 % of control and 108 % of control; the T/C (endpoint: median survival time, dose: 32.2 mg/kg/injection, schedule: Q01DX005 (iv), vehicle: saline with Tween-80) is 96 % of control; the T/C (endpoint: median survival time, dose: 32.3 mg/kg/injection, schedule: Q04DX003 (ip), vehicle: water) is 196 % of control. Besides, the T/C was 93 % of control (endpoint: median survival time, dose: 36.0 mg/kg/injection, schedule: Q01DX009 (ip), vehicle: saline); 108 % of control (endpoint: median survival time, dose: 43.1 mg/kg/injection, schedule: Q01DX009 (oral), vehicle: water); 95 % of control (endpoint: median survival time, dose: 43.2 mg/kg/injection, schedule: Q01DX005 (ip), vehicle: saline with Tween-80); 244 % of control (endpoint: median survival time, dose: 48.3 mg/kg/injection, schedule: Q04DX003 (ip), vehicle: water); 108 % of control (endpoint: median survival time, dose: 72.0 mg/kg/injection, schedule: Q04DX003 (ip), vehicle: water).
Regarding `O=C1OCC(Cl)=C1Cl`, the T/C reads like this: (endpoint: mean survival time, dose: 6.25 mg/kg/injection, schedule: Q01DX009 (ip), vehicle: saline with Tween-80) 96 % of control; (endpoint: mean survival time, dose: 12.5 mg/kg/injection, schedule: Q01DX009 (ip), vehicle: saline with Tween-80) 94 % of control; (endpoint: mean survival time, dose: 25.0 mg/kg/injection, schedule: Q01DX009 (ip), vehicle: saline with Tween-80) 98 % of control.
Take `CC/C(=C/c1ccc2c(c1)OCO2)[N+](=O)[O-]`: the T/C (endpoint: mean survival time, dose: 100.0 mg/kg/injection, schedule: Q01DX001 (ip), vehicle: saline with Tween-80) is 105 % of control.
With `CCC1CN2CCc3cc(OC)c(OC)cc3C2CC1CC1c2cc(OC)c(OC)cc2CCN1C(=O)C(Cc1c[nH]c2ccccc12)NC(=O)OC(C)(C)C` (centres undefined), the T/C is 93 % of control (endpoint: mean survival time, dose: 8.0 mg/kg/injection, schedule: Q04DX003 (ip), vehicle: saline with Tween-80); 95 % of control (endpoint: mean survival time, dose: 16.0 mg/kg/injection, schedule: Q04DX003 (ip), vehicle: saline with Tween-80); 98 % of control (endpoint: mean survival time, dose: 32.0 mg/kg/injection, schedule: Q04DX003 (ip), vehicle: saline with Tween-80); 89 % of control (endpoint: mean survival time, dose: 64.0 mg/kg/injection, schedule: Q04DX003 (ip), vehicle: saline with Tween-80); 87 % of control (endpoint: mean survival time, dose: 128.0 mg/kg/injection, schedule: Q04DX003 (ip), vehicle: saline with Tween-80).
